What was measured:
DU145 = experiment: Proliferation assay (crystal violet), DU145; type: cell-based; details: Homo sapiens, DU-145, 96 h; DU145, 4 days; read-out: Inhibition of proliferation IC50 DU145
Protocol: (§1) Cultivated tumor cells (cells were ordered from ATCC, except HeLa-MaTu and HeLa-MaTu-ADR, which were ordered from EPO-GmbH, Berlin) were plated at a density of 1000 to 5000 cells/well, depending on the growth rate of the respective cell line, in a 96-well multititer plate in 200 μL of their respective growth medium supplemented 10% fetal calf serum. After 24 hours, the cells of one plate (zero-point plate) were stained with crystal violet (see below), while the medium of the other plates was replaced by fresh culture medium (200 μl), to which the test substances were added in various concentrations (0 μM, as well as in the range of 0.001-10 μM; the final concentration of the solvent dimethyl sulfoxide was 0.5%). The cells were incubated for 4 days in the presence of test substances. Cell proliferation was determined by staining the cells with crystal violet: the cells were fixed by adding 20 μl/measuring point of an 11% glutaric aldehyde solution for 15 minutes at room temperature. After three washing cycles of the fixed cells with water, the plates were dried at room temperature. The cells were stained by adding 100 μl/measuring point of a 0.1% crystal violet solution (pH 3.0). After three washing cycles of the stained cells with water, the plates were dried at room temperature. The dye was dissolved by adding 100 μl/measuring point of a 10% acetic acid solution. Absorption was determined by photometry at a wavelength of 595 nm. The change of cell number, in percent, was calculated by normalization of the measured values to the absorption values of the zero-point plate (=0%) and the absorption of the untreated (0 μm) cells (=100%). The IC50 values were determined by means of a 4 parameter fit.

Caco2 = experiment: Proliferation assay (crystal violet), Caco2; type: cell-based; details: Homo sapiens, Caco-2, 96 h; Caco2, 4 days; read-out: Inhibition of proliferation IC50 Caco2
Protocol: as §1

HeLa-MaTu-ADR = experiment: Proliferation assay (crystal violet), HeLa-MaTu-ADR; type: cell-based; details: 96 h, 4 days, read-out: Inhibition of proliferation IC50 HeLa-MaTu-ADR
Protocol: as §1

NCI-H460 = experiment: Proliferation assay (crystal violet), NCI-H460; type: cell-based; details: Homo sapiens, 96 h; NCI-H460, 4 days; read-out: Inhibition of proliferation IC50 NCI-H460
Protocol: as §1

B16F10 = experiment: Proliferation assay (crystal violet), B16F10; type: cell-based; details: Mus musculus, B16-F10, 96 h; B16F10, 4 days; read-out: Inhibition of proliferation IC50 B16F10
Protocol: as §1

[1] = target: 456 kinases (of these 395 non-mutant kinases) (Homo sapiens, UniProt P07949, M918T); experiment: Kinase Profiling (KINOMEscan); type: binding; details: RET(M918T); 10 μM
[2] = target: 456 kinases (of these 395 non-mutant kinases) (Homo sapiens, UniProt P07949, V804M); experiment: Kinase Profiling (KINOMEscan); type: binding; details: RET(V804M); 10 μM
Sequence of 456 kinases (of these 395 non-mutant kinases) (Homo sapiens, UniProt P07949, V804M) (P07949 29-1114 V804M limits assumed): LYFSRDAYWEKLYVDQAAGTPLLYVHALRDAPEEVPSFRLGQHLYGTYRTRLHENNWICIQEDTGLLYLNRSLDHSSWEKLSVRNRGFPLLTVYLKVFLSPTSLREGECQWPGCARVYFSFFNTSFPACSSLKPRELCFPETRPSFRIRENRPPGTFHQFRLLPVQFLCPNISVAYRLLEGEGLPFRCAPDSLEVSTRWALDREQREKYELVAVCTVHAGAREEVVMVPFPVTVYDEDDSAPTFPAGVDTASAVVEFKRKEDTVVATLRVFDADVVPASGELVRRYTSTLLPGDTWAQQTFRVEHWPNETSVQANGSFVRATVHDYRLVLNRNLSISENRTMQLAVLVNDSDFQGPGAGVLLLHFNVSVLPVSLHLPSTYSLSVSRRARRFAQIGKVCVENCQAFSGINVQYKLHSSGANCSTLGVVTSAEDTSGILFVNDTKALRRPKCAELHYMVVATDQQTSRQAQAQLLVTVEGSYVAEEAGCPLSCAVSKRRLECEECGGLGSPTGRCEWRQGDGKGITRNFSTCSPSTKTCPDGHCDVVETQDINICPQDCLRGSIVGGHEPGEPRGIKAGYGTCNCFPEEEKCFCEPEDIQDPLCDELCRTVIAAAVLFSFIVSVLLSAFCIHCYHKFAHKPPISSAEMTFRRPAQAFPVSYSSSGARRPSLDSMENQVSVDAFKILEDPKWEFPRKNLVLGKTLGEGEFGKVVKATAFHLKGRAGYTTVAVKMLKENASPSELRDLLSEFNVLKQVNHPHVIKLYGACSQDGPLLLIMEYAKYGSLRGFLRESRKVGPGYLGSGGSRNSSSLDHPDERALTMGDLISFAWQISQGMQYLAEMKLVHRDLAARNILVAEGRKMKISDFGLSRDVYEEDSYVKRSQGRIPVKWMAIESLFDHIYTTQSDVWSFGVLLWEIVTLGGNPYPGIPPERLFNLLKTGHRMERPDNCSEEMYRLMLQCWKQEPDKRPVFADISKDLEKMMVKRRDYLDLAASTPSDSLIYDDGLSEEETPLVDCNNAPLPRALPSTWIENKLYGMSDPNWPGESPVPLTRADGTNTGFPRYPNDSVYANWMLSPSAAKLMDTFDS

[3] = target: 456 kinases (of these 395 non-mutant kinases) (Homo sapiens, UniProt O43283); experiment: Kinase Profiling (KINOMEscan); type: binding; details: LZK; 10 μM
[4] = target: 456 kinases (of these 395 non-mutant kinases) (Homo sapiens, UniProt P15056); experiment: Kinase Profiling (KINOMEscan); type: binding; details: BRAF; 10 μM
Sequence of 456 kinases (of these 395 non-mutant kinases) (Homo sapiens, UniProt P15056) (P15056 2-766 limits assumed, change not shown): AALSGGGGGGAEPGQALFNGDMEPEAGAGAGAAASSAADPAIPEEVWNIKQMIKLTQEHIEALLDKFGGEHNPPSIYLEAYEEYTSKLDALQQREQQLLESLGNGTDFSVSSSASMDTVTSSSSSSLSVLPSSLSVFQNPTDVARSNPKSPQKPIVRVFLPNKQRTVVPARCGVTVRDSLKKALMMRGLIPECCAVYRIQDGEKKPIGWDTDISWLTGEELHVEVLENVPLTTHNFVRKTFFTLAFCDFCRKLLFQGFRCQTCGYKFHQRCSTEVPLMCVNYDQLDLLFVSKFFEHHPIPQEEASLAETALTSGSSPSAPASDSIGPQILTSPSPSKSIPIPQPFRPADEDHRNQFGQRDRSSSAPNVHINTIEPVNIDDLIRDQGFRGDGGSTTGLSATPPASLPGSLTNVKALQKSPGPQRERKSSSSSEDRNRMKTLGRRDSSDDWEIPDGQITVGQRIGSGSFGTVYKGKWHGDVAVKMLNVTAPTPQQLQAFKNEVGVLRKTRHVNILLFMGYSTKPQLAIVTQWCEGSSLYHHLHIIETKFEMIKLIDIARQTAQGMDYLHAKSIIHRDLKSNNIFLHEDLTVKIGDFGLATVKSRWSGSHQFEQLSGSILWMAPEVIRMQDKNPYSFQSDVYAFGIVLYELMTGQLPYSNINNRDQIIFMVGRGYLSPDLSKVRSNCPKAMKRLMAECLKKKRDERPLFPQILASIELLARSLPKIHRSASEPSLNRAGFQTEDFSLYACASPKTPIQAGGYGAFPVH

[5] = target: 456 kinases (of these 395 non-mutant kinases) (Homo sapiens, UniProt P49674); experiment: Kinase Profiling (KINOMEscan); type: binding; details: CSNK1E; 10 μM
[6] = target: 456 kinases (of these 395 non-mutant kinases) (Homo sapiens, UniProt Q8NEV4); experiment: Kinase Profiling (KINOMEscan); type: binding; details: MYO3A; 10 μM
[7] = target: 456 kinases (of these 395 non-mutant kinases) (Homo sapiens, UniProt P46734); experiment: Kinase Profiling (KINOMEscan); type: binding; details: MEK3; 10 μM
[8] = target: 456 kinases (of these 395 non-mutant kinases) (Homo sapiens, UniProt Q9H2X6); experiment: Kinase Profiling (KINOMEscan); type: binding; details: HIPK2; 10 μM
[9] = target: 456 kinases (of these 395 non-mutant kinases) (Homo sapiens, UniProt Q9HCP0); experiment: Kinase Profiling (KINOMEscan); type: binding; details: CSNK1G1; 10 μM
[10] = target: 456 kinases (of these 395 non-mutant kinases) (Homo sapiens, UniProt Q12851); experiment: Kinase Profiling (KINOMEscan); type: binding; details: MAP4K2; 10 μM
[11] = target: 456 kinases (of these 395 non-mutant kinases) (Homo sapiens, UniProt P78356); experiment: Kinase Profiling (KINOMEscan); type: binding; details: PIP5K2B; 10 μM
Sequence of 456 kinases (of these 395 non-mutant kinases) (Homo sapiens, UniProt P78356) (P78356 2-416 limits assumed, change not shown): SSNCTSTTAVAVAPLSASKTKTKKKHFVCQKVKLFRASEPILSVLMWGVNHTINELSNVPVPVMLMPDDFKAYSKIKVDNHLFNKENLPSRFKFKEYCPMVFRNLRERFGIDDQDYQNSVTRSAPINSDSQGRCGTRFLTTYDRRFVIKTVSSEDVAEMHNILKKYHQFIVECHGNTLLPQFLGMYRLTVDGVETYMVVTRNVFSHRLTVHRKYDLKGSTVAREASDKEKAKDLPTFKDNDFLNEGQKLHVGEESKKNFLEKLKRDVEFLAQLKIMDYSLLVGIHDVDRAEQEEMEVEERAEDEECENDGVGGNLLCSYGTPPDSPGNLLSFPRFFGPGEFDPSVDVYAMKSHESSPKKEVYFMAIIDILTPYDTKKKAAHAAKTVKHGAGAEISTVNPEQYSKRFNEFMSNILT

[12] = target: 456 kinases (of these 395 non-mutant kinases) (Homo sapiens, UniProt P35968); experiment: Kinase Profiling (KINOMEscan); type: binding; details: VEGFR2; 10 μM
Sequence of 456 kinases (of these 395 non-mutant kinases) (Homo sapiens, UniProt P35968) (P35968 20-1356 limits assumed, change not shown): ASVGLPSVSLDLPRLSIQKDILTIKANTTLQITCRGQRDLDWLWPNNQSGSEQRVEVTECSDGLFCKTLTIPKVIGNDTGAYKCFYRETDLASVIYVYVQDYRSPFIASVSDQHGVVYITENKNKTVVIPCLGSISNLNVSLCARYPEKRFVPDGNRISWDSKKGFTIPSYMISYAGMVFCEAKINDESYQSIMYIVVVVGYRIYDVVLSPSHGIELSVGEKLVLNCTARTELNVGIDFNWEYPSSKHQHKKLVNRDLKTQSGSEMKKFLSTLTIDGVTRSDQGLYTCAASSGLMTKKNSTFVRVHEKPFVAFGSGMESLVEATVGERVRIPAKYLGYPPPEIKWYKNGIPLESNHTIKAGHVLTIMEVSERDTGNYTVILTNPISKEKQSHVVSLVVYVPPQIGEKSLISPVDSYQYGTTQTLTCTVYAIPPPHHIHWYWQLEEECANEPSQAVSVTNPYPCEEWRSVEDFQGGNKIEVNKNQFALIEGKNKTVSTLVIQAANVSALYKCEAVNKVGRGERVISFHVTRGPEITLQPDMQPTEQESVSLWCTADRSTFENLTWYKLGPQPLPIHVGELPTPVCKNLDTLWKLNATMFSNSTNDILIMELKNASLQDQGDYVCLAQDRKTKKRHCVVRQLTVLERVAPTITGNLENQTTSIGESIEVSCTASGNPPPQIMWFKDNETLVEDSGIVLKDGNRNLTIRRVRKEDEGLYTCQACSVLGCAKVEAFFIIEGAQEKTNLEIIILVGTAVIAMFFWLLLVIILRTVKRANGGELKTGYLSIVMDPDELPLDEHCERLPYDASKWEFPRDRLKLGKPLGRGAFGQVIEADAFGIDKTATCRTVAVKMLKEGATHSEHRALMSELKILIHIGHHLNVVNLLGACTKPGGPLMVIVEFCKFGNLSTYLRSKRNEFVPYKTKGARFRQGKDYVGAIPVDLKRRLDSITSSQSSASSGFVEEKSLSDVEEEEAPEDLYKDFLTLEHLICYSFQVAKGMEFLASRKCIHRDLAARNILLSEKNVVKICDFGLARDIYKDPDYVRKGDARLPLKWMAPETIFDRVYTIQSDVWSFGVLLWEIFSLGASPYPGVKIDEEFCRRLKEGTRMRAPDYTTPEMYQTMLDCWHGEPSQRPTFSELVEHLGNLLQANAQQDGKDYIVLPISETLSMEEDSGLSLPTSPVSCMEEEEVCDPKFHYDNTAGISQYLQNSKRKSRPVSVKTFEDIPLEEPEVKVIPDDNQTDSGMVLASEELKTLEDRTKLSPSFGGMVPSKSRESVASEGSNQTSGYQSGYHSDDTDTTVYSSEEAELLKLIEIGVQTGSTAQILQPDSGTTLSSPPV

[13] = target: 456 kinases (of these 395 non-mutant kinases) (Homo sapiens, UniProt P53667); experiment: Kinase Profiling (KINOMEscan); type: binding; details: LIMK1; 10 μM
[14] = target: 456 kinases (of these 395 non-mutant kinases) (Homo sapiens, UniProt Q9BVS4); experiment: Kinase Profiling (KINOMEscan); type: binding; details: RIOK2; 10 μM
[15] = target: 456 kinases (of these 395 non-mutant kinases) (Homo sapiens, UniProt Q86UE8); experiment: Kinase Profiling (KINOMEscan); type: binding; details: TLK2; 10 μM
[16] = target: 456 kinases (of these 395 non-mutant kinases) (Homo sapiens, UniProt Q13464); experiment: Kinase Profiling (KINOMEscan); type: binding; details: ROCK1; 10 μM
[17] = target: 456 kinases (of these 395 non-mutant kinases) (Homo sapiens, UniProt P51955); experiment: Kinase Profiling (KINOMEscan); type: binding; details: NEK2; 10 μM
[18] = target: 456 kinases (of these 395 non-mutant kinases) (Homo sapiens, UniProt Q9HBH9); experiment: Kinase Profiling (KINOMEscan); type: binding; details: MKNK2; 10 μM
[19] = target: 456 kinases (of these 395 non-mutant kinases) (Homo sapiens, UniProt P11362); experiment: Kinase Profiling (KINOMEscan); type: binding; details: FGFR1; 10 μM
Sequence of 456 kinases (of these 395 non-mutant kinases) (Homo sapiens, UniProt P11362) (P11362 22-822 limits assumed, change not shown): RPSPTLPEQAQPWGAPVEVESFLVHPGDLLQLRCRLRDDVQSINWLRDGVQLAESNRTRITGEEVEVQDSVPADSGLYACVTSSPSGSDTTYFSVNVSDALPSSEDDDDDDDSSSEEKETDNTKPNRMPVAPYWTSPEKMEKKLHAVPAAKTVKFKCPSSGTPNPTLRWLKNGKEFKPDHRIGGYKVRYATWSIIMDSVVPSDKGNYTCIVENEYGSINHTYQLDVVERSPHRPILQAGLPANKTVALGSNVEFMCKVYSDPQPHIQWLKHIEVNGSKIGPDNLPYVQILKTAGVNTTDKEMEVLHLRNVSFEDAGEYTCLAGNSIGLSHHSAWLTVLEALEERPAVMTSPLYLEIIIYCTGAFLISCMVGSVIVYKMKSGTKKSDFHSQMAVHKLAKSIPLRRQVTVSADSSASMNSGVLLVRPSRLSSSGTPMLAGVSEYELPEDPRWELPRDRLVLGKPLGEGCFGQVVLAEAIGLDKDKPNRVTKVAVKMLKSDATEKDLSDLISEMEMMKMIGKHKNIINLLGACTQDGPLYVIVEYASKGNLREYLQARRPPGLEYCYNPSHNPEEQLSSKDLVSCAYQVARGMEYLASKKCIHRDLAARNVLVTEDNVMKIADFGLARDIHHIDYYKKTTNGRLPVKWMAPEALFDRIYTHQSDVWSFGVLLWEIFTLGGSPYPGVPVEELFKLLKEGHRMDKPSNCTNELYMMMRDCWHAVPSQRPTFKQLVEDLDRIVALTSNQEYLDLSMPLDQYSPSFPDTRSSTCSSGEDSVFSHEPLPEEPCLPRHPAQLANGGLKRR

[20] = target: 456 kinases (of these 395 non-mutant kinases) (Homo sapiens, UniProt Q13153); experiment: Kinase Profiling (KINOMEscan); type: binding; details: PAK1; 10 μM
Sequence of 456 kinases (of these 395 non-mutant kinases) (Homo sapiens, UniProt Q13153) (Q13153 2-545 limits assumed, change not shown): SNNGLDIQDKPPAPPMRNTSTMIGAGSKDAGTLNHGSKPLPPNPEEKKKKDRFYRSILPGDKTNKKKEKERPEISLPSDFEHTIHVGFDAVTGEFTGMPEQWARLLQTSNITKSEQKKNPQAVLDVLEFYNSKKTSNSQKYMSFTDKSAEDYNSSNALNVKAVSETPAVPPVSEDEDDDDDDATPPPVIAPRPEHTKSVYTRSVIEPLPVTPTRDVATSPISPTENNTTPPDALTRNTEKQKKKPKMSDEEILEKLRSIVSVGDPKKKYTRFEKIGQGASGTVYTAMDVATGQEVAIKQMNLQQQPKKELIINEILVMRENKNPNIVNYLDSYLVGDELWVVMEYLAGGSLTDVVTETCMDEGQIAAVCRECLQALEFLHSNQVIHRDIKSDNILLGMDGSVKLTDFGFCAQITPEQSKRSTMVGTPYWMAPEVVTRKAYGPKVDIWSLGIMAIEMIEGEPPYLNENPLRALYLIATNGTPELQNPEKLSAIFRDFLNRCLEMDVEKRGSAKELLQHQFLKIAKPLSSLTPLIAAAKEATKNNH

Compound: CCc1ccccc1NC(=O)c1c(C)nsc1Nc1cnc2cc(F)ccc2n1 [Example 20, N-(2-Ethylphenyl)-5-[(6-fluoroquinoxalin-2-yl)amino]-3-methyl-1,2-thiazole-4-carboxamide]
- IC50 (DU145): 600 nM
- IC50 (Caco2): 550 nM
- IC50 (HeLa-MaTu-ADR): 500 nM
- IC50 (NCI-H460): 440 nM
- IC50 (B16F10): 530 nM
- % Ctrl @ 10 μM [1]: 78 % Ctrl
- % Ctrl @ 10 μM [2]: 100 % Ctrl
- % Ctrl @ 10 μM [3]: 88 % Ctrl
- % Ctrl @ 10 μM [4]: 82 % Ctrl
- % Ctrl @ 10 μM [5]: 74 % Ctrl
- % Ctrl @ 10 μM [6]: 86 % Ctrl
- % Ctrl @ 10 μM [7]: 100 % Ctrl
- % Ctrl @ 10 μM [8]: 100 % Ctrl
- % Ctrl @ 10 μM [9]: 90 % Ctrl
- % Ctrl @ 10 μM [10]: 99 % Ctrl
- % Ctrl @ 10 μM [11]: 86 % Ctrl
- % Ctrl @ 10 μM [12]: 100 % Ctrl
- % Ctrl @ 10 μM [13]: 90 % Ctrl
- % Ctrl @ 10 μM [14]: 77 % Ctrl
- % Ctrl @ 10 μM [15]: 94 % Ctrl
- % Ctrl @ 10 μM [16]: 81 % Ctrl
- % Ctrl @ 10 μM [17]: 100 % Ctrl
- % Ctrl @ 10 μM [18]: 100 % Ctrl
- % Ctrl @ 10 μM [19]: 94 % Ctrl
- % Ctrl @ 10 μM [20]: 100 % Ctrl
